Experimental data published in ChEMBL document CHEMBL1151586, “Design and synthesis of 10-oxo derivative of N-cyclopropylmethyl ()-6-acetylthiodihydro-normorphine, a potentially -selective opioid receptor ligand” (Bioorg Med Chem Lett, 1995).

Columns and labels:
Cavia porcellus [1] = species: Cavia porcellus; assay: Inhibition of the twitch response of the guinea pig longitudinal muscle strip to electrical stimulation in a concentration-dependent manner; format: functional, Muscle tissue
Cavia porcellus [2] = species: Cavia porcellus; assay: Inhibition of the twitch response of the guinea pig ileal strip to electrical stimulation; format: functional; conditions: read-out: pA2 (converted)

Compound | pD2 (Cavia porcellus [1]) | Kb (Cavia porcellus [2])
CC(=O)Oc1ccc2c3c1O[C@H]1[C@H](SC(C)=O)C=CC4[C@@H](C2)N(CC2CC2)CC[C@@]341 (some centres undefined) | 8.4 M | 
CC(=O)Oc1ccc2c3c1O[C@H]1[C@H](SC(C)=O)CCC4[C@@H](C2=O)N(CC2CC2)CC[C@@]341 (some centres undefined) | 9.03 M | 0.0355 nM
CN1CC[C@]23c4c5ccc(O)c4O[C@H]2[C@@H](O)C=C[C@H]3[C@H]1C5 [MORPHINE] | 7.23 M | 
